Numbered stars: 1 amine (or outer) side, 2 acyl side, 3 side chain; on linkers, the order of the positions; unused ones are H or OH. Square brackets hold non-standard residues; d marks the D form. Peptide text beside a SMILES is read from it. * marks the point of attachment. Sta = CC(C)C[C@H](N)[C@@H](O)CC(=O)O; pNA = O=[N+]([O-])c1ccc(N*)cc1; Suc = O=C(CCC(=O)[*:2])[*:1]; Isovaleryl = CC(C)CC(=O)*; Cbz = O=C(OCc1ccccc1)*; CK = not defined here
test system: Nicotianalisin; experiment: Protease inhibitor study in plant interstitial fluid (IF), N-Suc-AAPL-p-NA hydrolysis; assay type: biochemical, N. benthamiana; details: not given
Procedure: To further classify the protease activity in the plant IF extract, protease inhibitor studies were performed. Standard inhibitors from different classes of proteases were used. An aliquot of the plant IF was incubated with each inhibitor for 30 min at 24° C., and the free enzyme was incubated under the same conditions without the inhibitor to serve as the control. The protease activity after the inhibition was measured and compared to the control.
To further characterize the plant proteolytic activity, experiments were initiated to partially purify the plant protease. In order to purify the protease, enzyme assays were developed and utilized. Proteolytic activity was monitored by the hydrolysis of a synthetic substrate, hydrolysis of a protein substrate and/or by an in situ gel procedure. […] The absorbance of the p-nitroaniline (p-NA) produced was measured at 410 nm (Erlanger, Kokowsky, and Cohen, 1961; Nakajima et al., 1979). The activity unit was defined as the amount of the enzyme capable of producing 1 nanomole of p-NA per min under the conditions of the experiment with an absorption coefficient of […] (Erlanger, Kokowsky, and Cohen, 1961; Nakajima et al., 1979). The rate of hydrolysis of N-Succinyl-Ala-Ala-Pro-Phe-thiobenzylester SEQ ID NO: in 10% DMSO and 4,4′-dithiodipyridine was monitored at […] using an extinction coefficient of 19800 cm^−1 M^−1 (Barrett and Kirschke, 1981). General proteolytic activity was measured with 2.0% azocasein or 2.0% azoalbumin and Fluorescein Isothiocyanate Casein (FITC-casein; (Twining, 1984)). The reaction was started by addition of 10 μl of protease solution to 70 μl of reaction mixture (100 mM buffer Tris-HCl pH 7.0 containing 0.04% FTC-casein, 0.5 mM DDT, 2 mM CaCl2) and incubation for 1 hr at 37° C. The reaction was stopped by addition of 80 μl of 10% TCA and incubation for 15 min at −20° C. The mixture was centrifuged for 10 min at 10,000×g at 4° C. 10 μl of the supernatant solution was added to 150 μl Tris-HCl (0.5 M, pH 8.5), and fluorescence was measured at an excitation wavelength of 490 nm and an emission wavelength of 525 nm using a fluorescence plate reader ((Erlanger, Kokowsky, and Cohen, 1961; Nakajima et al., 1979), Molecular Devices).

Compound | % Inhibition
Cc1ccc(S(=O)(=O)N[C@@H](CCCCN)C(=O)CCl)cc1 [TLCK] | 0%

same assay, conditions: IF from viral vector-infected plants incubated with inhibitor 30 min at 24° C.; 0.3 mM N-Suc-AAPL-p-NA

Compound | % Inhibition
c1cnc2c(c1)ccc1cccnc12 [1-10 Phenantrolin] | 11%
N-CBZ-GGF-CK: irreversible serine protease inhibitor, active site titrant (Cbz-Gly-Gly-Phe-{CK}; reading uncertain; also: printed as N-CBZ-GGF-CK) | 70%
O=S(=O)(F)Cc1ccccc1 [PMSF, phenylmethanesulfonyl fluoride] | 100%
CC(C)C[C@H](NC(=O)N[C@H](C(=O)N[C@@H](CCC(N)=O)C(=O)N[C@@H](C)C=O)[C@@H]1CCNC(=N)N1)C(=O)O [Elastinal] | 41%
Cc1ccc(S(=O)(=O)N[C@@H](Cc2ccccc2)C(=O)CCl)cc1 [TPCK] | 38%
O=C(O)CN(CCN(CC(=O)O)CC(=O)O)CC(=O)O [EDTA] | 5%
Aprotinin | 46%
O=c1oc(Cl)c(Cl)c2ccccc12 [3-4 DCI] | 100%
CC(C)CC(=O)N[C@H](C(=O)N[C@H](C(=O)N[C@@H](CC(C)C)[C@@H](O)CC(=O)N[C@@H](C)C(=O)N[C@@H](CC(C)C)[C@@H](O)CC(=O)O)C(C)C)C(C)C [Pepstatin A] (Isovaleryl-VV[Sta]A[Sta]-OH) | 6%
CC(=O)N[C@@H](CC(C)C)C(=O)N[C@@H](CC(C)C)C(=O)N[C@H](C=O)CCCNC(=N)N [Leupeptin] | 18%
CC(C)C[C@H](NC(=O)[C@@H](NC(=O)N[C@@H](Cc1ccccc1)C(=O)O)[C@@H]1CCN=C(N)N1)C(=O)N[C@H](C=O)Cc1ccccc1 [Chymostatin] | 100%
CC(C)C[C@@H](N)[C@H](O)C(=O)N[C@H](C(=O)N[C@H](C(=O)N[C@@H](CC(=O)O)C(=O)O)C(C)C)C(C)C [Amastatin] | 5%
CC(C)C[C@H](NC(=O)[C@H]1O[C@@H]1C(=O)O)C(=O)NCCCCN=C(N)N [E-64] | 5%

test system: CD34+; experiment: CD34+ proliferation assays; assay type: cell-based; details: proteins purified from plants
Procedure: The vectors were used to inoculate plant leaves of different sets of plants as described in the examples above. Both plant homogenates and interstitial fluid were extracted as described above. hSCF and pSCF were each purified from 27 plants to yield 0.85 mg (˜15 mg/kg) and 2.5 mg (˜45 mg/kg) of protein respectively.

Compound | biological activity in CD34+ proliferation assays
hSCF: human Stem Cell growth Factor expressed in plants from GENEWARE vector | biologically active

test system: Nicotianalisin; experiment: Hydrolysis of synthetic 4-nitroanilide peptide substrates by purified protease; details: not given

Compound | preferential cleavage of synthetic peptide substrates
N-Succinyl-Alanine-Alanine-Proline-Leucine-para-nitroanilide [N-Suc-AAPL-pNA] | preferentially cleaved
N-Succinyl-Alanine-Alanine-Proline-Phenylalanine-para-nitroanilide [N-Suc-AAPF-pNA] | preferentially cleaved
N-Suc-AAPM-pNA: synthetic 4-nitroanilide peptide substrate (SMILES CSCC[C@H](NC(=O)[C@@H]1CCCN1C(=O)[C@H](C)NC(=O)[C@H](C)NC(=O)CCC(=O)O)C(=O)Nc1ccc([N+](=O)[O-])cc1) | preferentially cleaved

test system: Nicotianalisin; experiment: In situ Zymogram gelatin gel assay of partially purified protease; assay type: biochemical, N. benthamiana; details: 2 mM PMSF for 1 hr at 24° C.; partially purified fraction
Procedure: FIG. 2 depicts the inhibition of Nicotianalisin by PMSF protease inhibitor using Zymogram gelatin gel analysis. Plant extracts containing Nicotianalisin activity were partially purified by ion-exchange chromatography at pH 5.2, and fractions with peak protease activity were treated with or without 2 mM PMSF for 1 hr at 24° C. Following treatment, aliquots were removed and inhibitory activity assessed on Zymogram gels.
The in situ protease gel assay was carried out in pre-cast 10% Zymogram gels (Invitrogen, Carlsbad, Calif.) as per manufacturer's protocols.
Following the initial observation that the plant protease activity was inhibited by both chymostatin and potato PI-I (FIG. 1), experiments were initiated to partially purify the protease from N. benthamiana leaves. Plants were grown and IF extracts were prepared as described above. The IF was filtered through a 0.8μ Sartorius GF membrane to remove most of the Ribulose-1,5-bisphosphate carboxylase/oxygenase (Rubisco) and green pigments. The diafiltered extract was separated further by SP sepharose (Pharmacia) ion exchange chromatography at pH 5.2.

Compound | reduction of protease activity on Zymogram gelatin gel
O=S(=O)(F)Cc1ccccc1 [PMSF, phenylmethanesulfonyl fluoride] | significant reduction of protease activity

test system: plant protease; experiment: In vitro stability of recombinant hGH in IF with protease inhibitors (Western); assay type: biochemical, N. benthamiana; details: 24 hours at 24° C. followed by 120 hours at 5° C.; anti-hGH Western
Procedure: FIG. 1 depicts the in vitro stability of expressed recombinant human growth hormone protein (hereafter “hGH”) in the interstitial fluid (hereafter “IF”) following the addition of protease inhibitors. Recombinant hGH protein was expressed in N. benthamiana using a tobacco mosaic virus (hereafter “TMV”) vector expression system. IF was prepared from plant leaves at 9 days post-inoculation and incubated for 24 hours at 24° C. followed by 120 hours at 5° C. with or without the addition of protease inhibitors. Fifteen microliters of the IF extract was separated by SDS-PAGE and the gel prepared for Western analysis. The levels of hGH protein in the IF of the time zero control (lane a), in absence of inhibitor (lane b), and in the presence of protease inhibitors chymostatin (lane c) and PI-I (lane d), were detected using anti-hGH antibody.
When a plant viral vector expression system (Kumagai et al., 1995; McCormick et al., 1999) was utilized to express the secreted, mammalian recombinant protein, hGH, significant degradation of the target protein was observed. […]
Aliquots of the plant IF fraction were separated by SDS-PAGE and levels of hGH protein were detected by immunoblot analysis using anti-hGH polyclonal antibody (Sigma, St. Louis, Mo.). […]
At zero time, prior to the addition of any inhibitors, both full length and hGH cleavage products were detected (FIG. 1). […]

Compound | inhibition of degradation of hGH protein in IF extract
CC(C)C[C@H](NC(=O)[C@@H](NC(=O)N[C@@H](Cc1ccccc1)C(=O)O)[C@@H]1CCN=C(N)N1)C(=O)N[C@H](C=O)Cc1ccccc1 [Chymostatin] | inhibition of further degradation of the intact hGH protein was observed

Reference: US20040106198A1, “Inhibition of peptide cleavage in plants” (LARGE SCALE BIOLOGY CORPORATION, priority 2002, published 2004)
